Measurements taken from patent publication US20240277795A1, “INHIBITORS OF CYSTEINE PROTEASES AND METHODS OF USE THEREOF” (Pardes Biosciences, Inc., priority 2021, published 2024).
Like-named read-outs stand apart in the source and are kept apart here.

How the values were obtained:
229E Mpro = 229E Mpro (Human coronavirus 229E, UniProt P0C6X1); test: 229E Mpro enzymatic assay; format: biochemical, HCoV 229E
Protocol: (§1) Compounds were assayed using standard methods to assess compound activity and IC50. As an exemplary for assessment of the SARS-COV2 Mpro, the C-His6-tagged Mpro (NC_045512) was cloned, expressed in E. coli and purified. The assay buffer contained 20 mM of Tris-HCl (pH 7.3), 100 mM of NaCl, 1 mM of EDTA, 5 mM of TCEP and 0.1% BSA. The final concentrations of the Mpro protein and substrate were 25 nM and 25 μM, respectively, in the Mpro enzymatic assay. The Km of the Mpro substrate for the protease was 13.5 μM.
(§2) The compounds were added to an assay plate. For 100% inhibition control (HPE, hundred percent effect), 1 μM GC376 was added. For no inhibition control (ZPE, zero percent effect), no compound was added.
(§3) IC50 values of compounds were calculated with the GraphPad Prism software using the nonlinear regression model of log(inhibitor) vs. response—Variable slope (four parameters). The inhibition activity was calculated using the formula below, IC50 values is calculated using the Inhibition % data.
(§4) [formula] • #HEP: Hundred percent effect controls. Containing substrate+enzyme+1 μM GC376. • ZPE: Zero percent effective controls. Containing enzyme+substrate, no compound. • Sample: Compound activity testing wells. Containing compound+enzyme+substrate. • BG: Compound background control wells. Containing compound+substrate, no enzyme.

SARS-COV2 Mpro = SARS-COV2 Mpro (Severe acute respiratory syndrome coronavirus 2, UniProt P0DTD1); test: COVID-19 (nCoV-2019, SARS-CoV2) Mpro enzymatic assay; format: biochemical; details: read-out: COVID-19 Mpro IC50
Protocol: as §1, with “assay.” for “assay. The Km of the Mpro substrate for the protease was 13.5 μM.”
The compounds were added to an assay plate. For 100% inhibition control (HPE, hundred percent effect), 1 μM GC376 was added.
as §3
[formula] • #HEP: Hundred percent effect controls. […] Containing enzyme+substrate, no compound. • Sample: Compound activity testing wells. Containing compound+enzyme+substrate. • BG: Compound background control wells. Containing compound+substrate, no enzyme.

OC43 Mpro = OC43 Mpro (Human coronavirus OC43, UniProt P0C6X6); test: OC43 Mpro enzymatic assay; format: biochemical, HCoV OC43
OC43 Mpro, sequence (P0C6X6 3247-3549): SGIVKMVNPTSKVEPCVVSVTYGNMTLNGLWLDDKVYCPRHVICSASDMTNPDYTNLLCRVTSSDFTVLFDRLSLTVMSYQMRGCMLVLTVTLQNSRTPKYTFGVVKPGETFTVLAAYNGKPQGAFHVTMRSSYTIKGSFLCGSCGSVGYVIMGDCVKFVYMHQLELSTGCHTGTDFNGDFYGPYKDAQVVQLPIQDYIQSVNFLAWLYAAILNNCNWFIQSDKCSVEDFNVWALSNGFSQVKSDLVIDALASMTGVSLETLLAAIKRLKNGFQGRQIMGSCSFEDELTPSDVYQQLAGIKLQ
Protocol: as §1, §2, §3, §4

229E Mpro, sequence (P0C6X1 2966-3267): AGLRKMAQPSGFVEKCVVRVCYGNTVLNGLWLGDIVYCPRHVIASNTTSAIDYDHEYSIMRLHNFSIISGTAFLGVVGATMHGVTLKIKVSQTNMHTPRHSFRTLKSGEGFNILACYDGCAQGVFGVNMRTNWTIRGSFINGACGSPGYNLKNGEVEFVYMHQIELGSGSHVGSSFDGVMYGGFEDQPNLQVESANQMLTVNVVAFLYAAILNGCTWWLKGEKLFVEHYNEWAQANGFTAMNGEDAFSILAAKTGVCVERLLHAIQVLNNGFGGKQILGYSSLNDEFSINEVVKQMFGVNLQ

Row | Compound | IC50 (229E Mpro; Table 3) | IC50 (SARS-COV2 Mpro; Table 3) | IC50 (OC43 Mpro; Table 3) | IC50 (229E Mpro; Table 5) | IC50 (SARS-COV2 Mpro; Table 5) | IC50 (OC43 Mpro; Table 5)
1 | C[C@@H](OC1(C)CCC1)[C@H](NC(=O)C(F)(F)F)C(=O)N1C[C@H]2[C@@H]([C@H]1C(=O)N[C@H](C#N)C[C@@H]1CC(C)(C)NC1=O)C2(C)C [Compound 308, (1R,2S,5S)—N-[(1S)-1-cyano-2-[(3R)-5,5-dimethyl-2-oxo-pyrrolidin-3-yl]ethyl]-6,6-dimethyl-3-[(2S,3R)-3-(1-methylcyclobutoxy)-2-[(2,2,2-trifluoroacetyl)amino]butanoyl]-3-azabicyclo[3.1.0]hexane-2-carboxamide] | < 2000 nM | < 2000 nM | < 2000 nM | – | – | –
2 | CO[C@H](C)[C@H](NC(=O)C(F)(F)F)C(=O)N1C[C@H]2[C@@H]([C@H]1C(=O)N[C@H](C#N)C[C@@H]1CC3(CCC3)NC1=O)C2(C)C [Compound 425, (1R,2S,5S)—N-[(1S)-1-cyano-2-[(7R)-6-oxo-5-azaspiro[3.4]octan-7-yl]ethyl]-3-[(2S,3R)-3-methoxy-2-[(2,2,2-trifluoroacetyl)amino]butanoyl]-6,6-dimethyl-3-azabicyclo[3.1.0]hexane-2-carboxamide] | – | – | – | < 2000 nM | < 2000 nM | < 2000 nM
3 | CC(C)(C)[C@H](NC(=O)OC1CC(F)(F)C1(F)F)C(=O)N1C[C@H]2[C@@H]([C@H]1C(=O)N[C@H](C#N)C[C@@H]1CC3(CC3)NC1=O)C2(C)C (single isomer, unassigned) [273 Isomer 1] | < 2000 nM | < 2000 nM | < 2000 nM | – | – | –
4 | C[C@@H](OC1(C#N)CC1)[C@H](NC(=O)C(F)(F)F)C(=O)N1C[C@H]2[C@@H]([C@H]1C(=O)N[C@H](C#N)C[C@@H]1CC3(CC3)NC1=O)C2(C)C [Compound 335] | – | – | – | < 2000 nM | < 2000 nM | < 2000 nM
5 | CN(C(=O)[C@@H](NC(=O)c1cnccn1)C(C)(C)C)[C@@H](CC1CC1)C(=O)N[C@H](C#N)C[C@@H]1CCCNC1=O [Compound 102, N-[(1S)-1-[[(1S)-2-[[(1S)-1-cyano-2-[(3S)-2-oxo-3-piperidyl]ethyl]amino]-1-(cyclopropylmethyl)-2-oxo-ethyl]-methyl-carbamoyl]-2,2-dimethyl-propyl]pyrazine-2-carboxamide] | 2000 to 10000 nM | > 30000 nM | 10000 to 30000 nM | – | – | –
6 | C[C@@H](OC1CC1)[C@H](NC(=O)C(F)(F)F)C(=O)N1C[C@H]2[C@@H]([C@H]1C(=O)N[C@H](C#N)C[C@@H]1CC(C)(C)NC1=O)C2(C)C (single isomer, unassigned) [Compound 298] | – | – | – | < 2000 nM | < 2000 nM | < 2000 nM
7 | C[C@@H](OC1CC(F)(F)C1)[C@H](NC(=O)C(F)(F)F)C(=O)N1C[C@H]2[C@@H]([C@H]1C(=O)N[C@H](C#N)C[C@@H]1CC(C)(C)NC1=O)C2(C)C [Compound 330, (1R,2S,5S)—N-[(1S)-1-cyano-2-[(3R)-5,5-dimethyl-2-oxo-pyrrolidin-3-yl]ethyl]-3-[(2S,3R)-3-(3,3-difluorocyclobutoxy)-2-[(2,2,2-trifluoroacetyl)amino]butanoyl]-6,6-dimethyl-3-azabicyclo[3.1.0]hexane-2-carboxamide] | < 2000 nM | < 2000 nM | < 2000 nM | – | – | –
8 | C[C@@H](OCC(F)(F)F)[C@H](NC(=O)C(F)(F)F)C(=O)N1C[C@H]2[C@@H]([C@H]1C(=O)N[C@H](C#N)C[C@@H]1CC3(CC3)NC1=O)C2(C)C [Compound 319, (1R,2S,5S)—N-[(1S)-1-cyan-2-[(6R)-5-oxo-4-azaspiro[2.4]heptan-6-yl]ethyl]-6,6-dimethyl-3-[(2S,3R)-2-[(2,2,2-trifluoroacetyl)amino]-3-(2,2,2-trifluoroethoxy)butanoyl]-3-azabicyclo[3.1.0]hexane-2-carboxamide] | – | – | – | < 2000 nM | < 2000 nM | < 2000 nM
9 | CC1(C)C[C@@H](C[C@@H](C#N)NC(=O)[C@@H]2[C@@H]3[C@H](CN2C(=O)[C@@H](NC(=O)C(F)(F)F)C2CCC(C)(C)O2)C3(C)C)C(=O)N1 (stereo partly drawn) [Compound 328] | < 2000 nM | < 2000 nM | < 2000 nM | – | – | –
10 | C[C@@H](OC1(C)CC1)[C@H](NC(=O)C(F)(F)F)C(=O)N1C[C@H]2[C@@H]([C@H]1C(=O)N[C@H](C#N)C[C@@H]1CC3(CC3)NC1=O)C2(C)C [Compound 315, (1R,2S,5S)—N-[(1S)-1-cyan-2-[(6R)-5-oxo-4-azaspiro[2.4]heptan-6-yl]ethyl]-6,6-dimethyl-3-[(2S,3R)-3-(1-methylcyclopropoxy)-2-[(2,2,2-trifluoroacetyl)amino]butanoyl]-3-azabicyclo[3.1.0]hexane-2-carboxamide] | < 2000 nM | < 2000 nM | < 2000 nM | – | – | –
11 | C[C@@H](OC1(C)CCC1)[C@H](NC(=O)C(F)(F)F)C(=O)N1C[C@H]2[C@@H]([C@H]1C(=O)N[C@H](C#N)C[C@@H]1CC3(CC3)NC1=O)C2(C)C [Compound 314, (1R,2S,5S)—N-[(1S)-1-cyan-2-[(6R)-5-oxo-4-azaspiro[2.4]heptan-6-yl]ethyl]-6,6-dimethyl-3-[(2S,3R)-3-(1-methylcyclobutoxy)-2-[(2,2,2-trifluoroacetyl)amino]butanoyl]-3-azabicyclo[3.1.0]hexane-2-carboxamide] | – | – | – | < 2000 nM | < 2000 nM | < 2000 nM
12 | C[C@@H](OC(C)(C)C)[C@H](NC(=O)C1(C(F)(F)F)CC1)C(=O)N1C[C@H]2[C@@H]([C@H]1C(=O)N[C@H](C#N)C[C@@H]1CC(C)(C)NC1=O)C2(C)C [Compound 295, (1R,2S,5S)-3-[(2S,3R)-3-tert-butoxy-2-[[1-(trifluoromethyl)cyclopropanecarbonyl]amino]butanoyl]-N-[(1S)-1-cyano-2-[(3R)-5,5-dimethyl-2-oxo-pyrrolidin-3-yl]ethyl]-6,6-dimethyl-3-azabicyclo[3.1.0]hexane-2-carboxamide] | – | – | – | < 2000 nM | < 2000 nM | < 2000 nM
13 | C[C@@H](OC(C)(C)C(F)(F)F)[C@H](NC(=O)C(F)(F)F)C(=O)N1C[C@H]2[C@@H]([C@H]1C(=O)N[C@H](C#N)C[C@@H]1CC3(CC3)NC1=O)C2(C)C [Compound 358, (1R,2S,5S)—N-[(1S)-1-cyan-2-[(6R)-5-oxo-4-azaspiro[2.4]heptan-6-yl]ethyl]-6,6-dimethyl-3-[(2S,3R)-2-[(2,2,2-trifluoroacetyl)amino]-3-(2,2,2-trifluoro-1,1-dimethyl-ethoxy)butanoyl]-3-azabicyclo[3.1.0]hexane-2-carboxamide] | – | – | – | < 2000 nM | < 2000 nM | < 2000 nM
14 | COC(C)(C)[C@H](NC(=O)C(F)(F)F)C(=O)N1C[C@H]2[C@@H]([C@H]1C(=O)N[C@H](C#N)C[C@@H]1CC3(CC3)NC1=O)C2(C)C [Compound 139, (1R,2S,5S)—N—((S)-1-cyan-2-((R)-5-oxo-4-azaspiro[2.4]heptan-6-yl)ethyl)-3-((S)-3-methoxy-3-methyl-2-(2,2,2-trifluoroacetamido)butanoyl)-6,6-dimethyl-3-azabicyclo[3.1.0]hexane-2-carboxamide] | – | – | – | < 2000 nM | < 2000 nM | < 2000 nM
15 | CC(C)(C)[C@H](NC(=O)C(F)(F)F)C(=O)N1C[C@H]2[C@@H]([C@H]1C(=O)N[C@H](C#N)C[C@@]1(C)CC3(CC3)NC1=O)C2(C)C [Compound 375] | < 2000 nM | < 2000 nM | < 2000 nM | – | – | –
16 | C[C@@H](OC1CC1)[C@H](NC(=O)C(F)(F)F)C(=O)N1C[C@H]2[C@@H]([C@H]1C(=O)N[C@H](C#N)C[C@@H]1CC3(CC3)NC1=O)C2(C)C [Compound 326, (1R,2S,5S)—N-[(1S)-1-cyan-2-[(6R)-5-oxo-4-azaspiro[2.4]heptan-6-yl]ethyl]-3-[(2S,3R)-3-(cyclopropoxy)-2-[(2,2,2-trifluoroacetyl)amino]butanoyl]-6,6-dimethyl-3-azabicyclo[3.1.0]hexane-2-carboxamide] | – | – | – | < 2000 nM | < 2000 nM | < 2000 nM
17 | CC(C)(C)[C@H](NC(=O)C1(CF)CC1(F)F)C(=O)N1C[C@H]2[C@@H]([C@H]1C(=O)N[C@H](C#N)C[C@@H]1CC3(CC3)NC1=O)C2(C)C (single isomer, unassigned) [292 Isomer 1] | < 2000 nM | < 2000 nM | < 2000 nM | – | – | –
18 | CC1(C)[C@@H]2[C@@H](C(=O)N[C@H](C#N)C[C@@H]3CC4(CC4)NC3=O)N(C(=O)C(NC(=O)C(F)(F)F)C3CCC3)C[C@@H]21 (single isomer, unassigned) [372 Isomer 1] | < 2000 nM | < 2000 nM | < 2000 nM | – | – | –
